Values after ≈ are worked out from the molar mass of the structure shown.
Assays:
[1] = test system: purified tubulin; assay: In vitro inhibition of tubulin polymerization; format: biochemical; conditions: purified bovine brain tubulin 1.5 mg/ml, preincubated 15 minutes at 37° C., GTP-induced, 350 nm
Description: IC50 values for tubulin polymerization were determined according to a previously described procedure (Bai et al., Cancer Research, 1996) and are summarized in Table 3 below. Purified tubulin is obtained from bovine brain cells as previously described (Hamel and Lin, Biochemistry, 1984). Various amounts of inhibitor were preincubated for 15 minutes at 37° C. with purified tubulin. After the incubation period, the reaction was cooled and GTP was added to induce tubulin polymerization. Polymerization was then monitored in a Gilford spectrophotometer at 350 nm. The final reaction mixtures (0.25 ml) contained 1.5 mg/ml tubulin, 0.6 mg/ml microtubule-associated proteins (MAPs), 0.5 mM GTP, […], 4% DMSO and 0.1M 4-morpholineethanesulfonate buffer (MES, pH 6.4). IC50 is the amount of inhibitor needed to inhibit tubulin polymerization 50% with respect to the amount of […] that occurs in the absence of inhibitor.

[2] = test system: MCF-7; assay: In vitro growth inhibition, SRB assay, breast MCF-7; format: cell-based; conditions: Homo sapiens, MCF7, breast MCF-7, 48 hours incubation, read-out: GI50 (μM/mL) for Cell Line MCF-7
Description: (§1) Newly prepared compounds were evaluated for cytotoxic activity against a variety of cell lines derived from human tumors using an assay system similar to the National Cancer Institute procedure previously described (Monks et al., J. Natl. Cancer Inst., 1991). Briefly, the cell suspensions, diluted according to the particular cell type and the expected target cell density (5,000-40,000 cells per well based on cell growth characteristics), were added by pipet (100 ul) to 96-well microtiter plates. Inoculates were allowed a preincubation time of 24-28 hours at 37 C for stabilization. Incubation with the inhibitor compounds lasted for 48 hours in 5% CO2 atmosphere and 100% humidity. Determination of cell growth was performed by in situ fixation of cells, followed by staining with a protein-binding dye sulforhodamine B (SRB), which binds to the basic amino acids of cellular macromolecules. The solubilized stain was measured spectrophotometrically.
(§2) Several compounds were evaluated for cytotoxic activity against […] P388 leukemia cell lines. The effective dose or ED50 value (defined as the effective dosage required for inhibition of 50% of cell growth) was measured. These and additional compounds were evaluated in terms of growth inhibitory activity against several other human cancer cell lines including: central nervous system (“CNS”, SF-268), pancreas (BXPC-3), non-small cell lung cancer (“lung-NSC”, NCI-H460), breast (MCF-7), colon (KM20L2), ovarian (OVCAR-3), and prostate (DU-145). The growth inhibition GI50 (defined as the dosage required for inhibition of tumor cell growth by 50%) is listed for each cell line.

[3] = test system: DU-145; assay: In vitro growth inhibition, SRB assay, prostate DU-145; format: cell-based; conditions: Homo sapiens, prostate DU-145, 48 hours incubation, read-out: GI50 (μM/mL) for Cell Line DU-145
Description: as §1, §2

[4] = test system: BXPC-3; assay: In vitro growth inhibition, SRB assay, pancreas BXPC-3; format: cell-based; conditions: Homo sapiens, 48 hours incubation, read-out: GI50 (μM/mL) for Cell Line BXP-3
Description: as §1, §2

[5] = test system: NCI-H460; assay: In vitro growth inhibition, SRB assay, lung-NSC NCI-H460; format: cell-based; conditions: Homo sapiens, lung-NSC NCI-H460, 48 hours incubation, read-out: GI50 (μM/mL) for Cell Line NCI-H460
Description: as §1, §2

[6] = test system: SF-268; assay: In vitro growth inhibition, SRB assay, CNS SF-268; format: cell-based; conditions: Homo sapiens, CNS SF-268, 48 hours incubation, read-out: GI50 (μM/mL) for Cell Line SF-268
Description: as §1, §2

[7] = test system: KM20L2; assay: In vitro growth inhibition, SRB assay, colon KM20L2; format: cell-based; conditions: Homo sapiens, KM-20L2, colon KM20L2, 48 hours incubation, read-out: GI50 (μM/mL) for Cell Line KM20L2
Description: as §1, §2

Row | SMILES | IC50 [1] | GI50 [2] | GI50 [3] | GI50 [4] | GI50 [5] | GI50 [6] | GI50 [7]
2 | COc1ccc2c(c1)CCCC(c1cc(OC)c(OC)c(OC)c1)=C2 [Compound 1, 3-Methoxy-8-(3,4,5-trimethoxy-phenyl)-6,7-dihydro-5H-benzocycloheptene] | ~40 µM | 0.32 µg/mL (≈ 0.94 µM) | 0.33 µg/mL (≈ 0.969 µM) | 0.4 µg/mL (≈ 1.18 µM) | 0.23 µg/mL (≈ 0.676 µM) | 0.28 µg/mL (≈ 0.823 µM) | 0.2 µg/mL (≈ 0.588 µM)
3 | COc1ccc2c(c1)CCCC=C2c1cc(OC)c(OC)c(OC)c1 [Compound 2, 3-Methoxy-9-(3,4,5-trimethoxy-phenyl)-6,7-dihydro-5H-benzocycloheptene] | 1.4 ± 0.2 µM | > 10 µg/mL | > 10 µg/mL | > 10 µg/mL | > 10 µg/mL | > 10 µg/mL | > 10 µg/mL
4 | COc1ccc2c(c1O)CCCC(c1cc(OC)c(OC)c(OC)c1)=C2 [Compound 3, 2-Methoxy-6-(3,4,5-trimethoxy-phenyl)-8,9-dihydro-7H-benzocyclohepten-1-ol] | ~40 µM | – | – | – | – | – | –
5 | COc1ccc(C(=O)C2=CCCCc3c2cc(OC)c(OC)c3OC)c(O)c1O [Compound 23, (2,3-Dihydroxy-4-methoxy-phenyl)-(1,2,3-trimethoxy-8,9-dihydro-7H-benzocyclohepten-5-yl)-methanone] | ~40 µM | 0.0059 µg/mL (≈ 0.0147 µM) | 0.026 µg/mL (≈ 0.0649 µM) | 0.017 µg/mL (≈ 0.0425 µM) | 0.023 µg/mL (≈ 0.0574 µM) | 0.009 µg/mL (≈ 0.0225 µM) | 0.031 µg/mL (≈ 0.0774 µM)
6 | COc1ccc(C(=O)C2=CCCCc3c2cc(OC)c(OC)c3OC)cc1O [Compound 24, (3-Hydroxy-4-methoxy-phenyl)-(1,2,3-trimethoxy-8,9-dihydro-7H-benzocyclohepten-5-yl)-methanone] | ~40 µM | – | – | – | – | – | –

— US8394859B2, “Combretastatin analogs with tubulin binding activity” (Baylor University, priority 2005, dated 2013)
